Experiment [1] concerns the target MC4-R (Homo sapiens, UniProt P32245). Briefly: Competitive inhibition binding assay using [I125]-NDP-α-MSH, HEK-293 membranes, recombinant hMC4-R. Also noted: expressed in transfected cells; host or cells: HEK-293. The note with it: for inhibition at 1 µM: 1 μM compound. The method, then:
(§1) A competitive inhibition binding assay was performed using membrane homogenates prepared from HEK-293 cells that express recombinant hMC4-R, hMC3-R, or hMC5-R, and from B-16 mouse melanoma cells (containing endogenous MC1-R). In some instances, HEK-293 cells that express recombinant hMC1-R were employed. In the examples that follow, all MC3-R, MC4-R and MC5-R values are for human recombinant receptors. MC1-R values are for B-16 mouse melanoma cells, unless the heading is “hMC1-R”, in which case the value is for human recombinant MC1-R. Assays were performed in 96 well GF/B Millipore multiscreen filtration plates (MAFB NOB10) pre-coated with 0.5% bovine serum albumin (Fraction V). […] After incubation for 60 minutes at 37° C., the assay mixture was filtered and the membranes washed three times with ice-cold buffer. Filters were dried and counted in a gamma counter for bound radioactivity. […] Maximal specific binding (100%) was defined as the difference in radioactivity (cpm) bound to cell membranes in the absence and presence of 1 μM NDP-α-MSH. […] Each assay was conducted in triplicate and the actual mean values are described, with results less than 0% reported as 0%. Ki values for test compounds were determined using Graph-Pad Prism® curve-fitting software.

Experiment [2] addresses T1, MC3-R (Homo sapiens, UniProt P41968).
T1 construct: expressed in transfected cells; host or cells: HEK-293
Kind of experiment: Competitive inhibition binding assay using [I125]-NDP-α-MSH, HEK-293 membranes, recombinant hMC3-R. To be noted: for inhibition at 1 µM: 1 μM compound. The method, then:
as §1

Experiment [3] deals with T2, MC5-R (Homo sapiens, UniProt P33032).
T2 construct: expressed in transfected cells; host or cells: HEK-293
Briefly: Competitive inhibition binding assay using [I125]-NDP-α-MSH, HEK-293 membranes, recombinant hMC5-R. The note with it: for inhibition at 1 µM: 1 μM compound. The method, then:
as §1

Experiment [4] addresses T3, hMC1-R (Homo sapiens, UniProt Q01726).
T3 construct: expressed in transfected cells; host or cells: HEK-293
Briefly: Competitive inhibition binding assay using [I125]-NDP-α-MSH, HEK-293 membranes, recombinant hMC1-R. The note with it: human recombinant MC1-R; for inhibition at 1 µM: 1 μM compound. As to the method: as §1

Each structure is given as a SMILES string. “And” between values parts separate entries of the source, which are not always exact repeats. Equal entries are not always repeated.

This is an account of results in patent US7968548B2, “Melanocortin receptor-specific piperazine compounds with diamine groups” (Palatin Technologies, Inc., priority 2005, dated 2011).

T3 sequence (Q01726 whole entry): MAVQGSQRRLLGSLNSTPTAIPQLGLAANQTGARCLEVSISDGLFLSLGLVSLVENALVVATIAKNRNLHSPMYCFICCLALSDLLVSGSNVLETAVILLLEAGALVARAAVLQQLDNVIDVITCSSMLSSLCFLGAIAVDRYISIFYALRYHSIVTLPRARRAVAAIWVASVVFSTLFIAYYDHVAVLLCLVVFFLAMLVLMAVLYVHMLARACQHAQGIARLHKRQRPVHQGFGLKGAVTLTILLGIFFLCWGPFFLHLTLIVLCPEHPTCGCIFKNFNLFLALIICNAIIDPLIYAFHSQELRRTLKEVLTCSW
T1 sequence (P41968 whole entry): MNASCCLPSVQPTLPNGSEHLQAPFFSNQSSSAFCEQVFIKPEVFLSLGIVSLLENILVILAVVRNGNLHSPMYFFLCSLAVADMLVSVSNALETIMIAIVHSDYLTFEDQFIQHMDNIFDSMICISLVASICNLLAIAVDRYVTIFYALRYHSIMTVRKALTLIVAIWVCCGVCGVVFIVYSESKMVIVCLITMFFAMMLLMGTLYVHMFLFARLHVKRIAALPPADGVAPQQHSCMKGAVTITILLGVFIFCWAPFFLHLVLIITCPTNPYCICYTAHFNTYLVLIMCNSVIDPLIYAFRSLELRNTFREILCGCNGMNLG
T2 sequence (P33032 whole entry): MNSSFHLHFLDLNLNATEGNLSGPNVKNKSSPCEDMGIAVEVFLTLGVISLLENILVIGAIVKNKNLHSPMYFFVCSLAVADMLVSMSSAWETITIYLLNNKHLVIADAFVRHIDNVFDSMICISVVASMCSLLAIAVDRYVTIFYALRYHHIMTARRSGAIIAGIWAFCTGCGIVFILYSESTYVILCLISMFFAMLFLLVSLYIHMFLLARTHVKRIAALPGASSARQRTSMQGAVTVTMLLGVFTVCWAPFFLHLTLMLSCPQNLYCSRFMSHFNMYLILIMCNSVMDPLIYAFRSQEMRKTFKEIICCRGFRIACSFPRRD
MC4-R, sequence (P32245 whole entry): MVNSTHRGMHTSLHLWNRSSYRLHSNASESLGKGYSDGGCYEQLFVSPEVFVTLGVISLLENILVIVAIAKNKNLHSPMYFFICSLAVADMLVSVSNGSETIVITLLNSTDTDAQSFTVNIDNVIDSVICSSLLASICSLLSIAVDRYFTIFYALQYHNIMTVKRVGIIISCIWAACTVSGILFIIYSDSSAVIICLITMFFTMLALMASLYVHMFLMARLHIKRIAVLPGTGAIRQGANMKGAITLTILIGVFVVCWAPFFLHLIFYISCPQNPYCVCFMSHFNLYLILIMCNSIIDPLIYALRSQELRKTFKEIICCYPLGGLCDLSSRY

For the compound `Cc1ccc(C[C@@H](N)CN2C[C@@H](C)N(C(=O)Cc3ccc4ccccc4c3)C[C@@H]2Cc2ccc(NCCN)cc2)c(C)c1` [Example 11, 1-{(2R,5S)-4-[(R)-2-Amino-3-(2,4-dimethyl-phenyl)-propyl]-5-[4-(2-amino-ethylamino)-benzyl]-2-methyl-piperazin-1-yl}-2-naphthalen-2-yl-ethanone], the inhibition at 1 µM came to 39% in experiment [1], 29% in experiment [2], 36% in experiment [3] and 3% in experiment [4].
Turning to `Cc1ccc(C[C@@H](N)C(=O)N2C[C@H](CCCNCCN)N(C(=O)[C@H](N)Cc3ccc(C)cc3C)C[C@H]2CC2CCCCC2)c(C)c1` [Example 14, (R)-2-Amino-1-{(2R,5S)-4-[(R)-2-amino-3-(2,4-dimethyl-phenyl)-propionyl]-5-[3-(2-amino-ethylamino)-propyl]-2-cyclohexylmethyl-piperazin-1-yl}-3-(2,4-dimethyl-phenyl)-propan-1-one], the inhibition constant (Ki) in experiment [1] was 81 nM. Further, the inhibition at 1 µM in experiment [1] stood at 83%; in experiment [2], 22%; in experiment [3], 43%; in experiment [4], 35%.
The matching figures for `NCCNCCC[C@H]1CN(C(=O)[C@H](N)Cc2ccc(Cl)cc2Cl)[C@H](CC2CCCCC2)CN1C(=O)[C@H](N)Cc1ccc(Cl)cc1Cl` [Example 15, (R)-2-Amino-1-{(2R,5S)-4-[(R)-2-amino-3-(2,4-dichloro-phenyl)-propionyl]-5-[3-(2-amino-ethylamino)-propyl]-2-cyclohexylmethyl-piperazin-1-yl}-3-(2,4-dichloro-phenyl)-propan-1-one]: 74 nM, 83%, 36%, 31% and 27%.
In the case of `NCCNCCC[C@H]1CN(C(=O)[C@H](N)Cc2ccc3ccccc3c2)[C@H](CC2CCCCC2)CN1C(=O)[C@H](N)Cc1ccc2ccccc2c1` [Example 16, (R)-2-Amino-1-[(2R,5S)-5-[3-(2-amino-ethylamino)-propyl]-4-((R)-2-amino-3-naphthalen-2-yl-propionyl)-2-cyclohexylmethyl-piperazin-1-yl]-3-naphthalen-2-yl-propan-1-one], the inhibitory constant (Ki) is 99 nM and 81 nM in experiment [1]; 36 nM in experiment [2]; 30 nM in experiment [3]; 22 nM in experiment [4].
In the case of `Cc1ccc(C[C@@H](N)C(=O)N2C[C@H](CCCNCCN)N(C(=O)[C@H](N)Cc3ccc(C)cc3C)C[C@H]2CC(C)C)c(C)c1` [Example 17, (R)-2-Amino-1-{(2S,5R)-4-[(R)-2-amino-3-(2,4-dimethyl-phenyl)-propionyl]-2-[3-(2-amino-ethylamino)-propyl]-5-isobutyl-piperazin-1-yl}-3-(2,4-dimethyl-phenyl)-propan-1-one], the Ki in experiment [1] came out at 60 nM. For the same compound, the inhibition at 1 µM in experiment [1] was determined as 83%; in experiment [2] it was 14%; in experiment [3], 38%; in experiment [4], 22%.
As to `CC(C)C[C@@H]1CN(C(=O)[C@H](N)Cc2ccc(Cl)cc2Cl)[C@@H](CCCCNCCN)CN1C(=O)[C@H](N)Cc1ccc(Cl)cc1Cl` [Example 19, (R)-2-Amino-1-{(2R,5S)-4-[(R)-2-amino-3-(2,4-dichloro-phenyl)-propionyl]-5-[4-(2-amino-ethylamino)-butyl]-2-isobutyl-piperazin-1-yl}-3-(2,4-dichloro-phenyl)-propan-1-one], the Ki in experiment [1] worked out at 36 nM; in experiment [2], 327 nM; in experiment [3], 296 nM; in experiment [4], 754 nM. For the same compound, the inhibition at 1 µM amounted to 97% in experiment [1], 59% in experiment [2], 47% in experiment [3] and 36% in experiment [4].
On to `Cc1ccc(C[C@@H](N)C(=O)N2C[C@H](CCCCNCCN)N(C(=O)[C@H](N)Cc3ccc(C)cc3C)C[C@H]2CC(C)C)c(C)c1` [Example 21, (R)-2-Amino-1-{(2R,5S)-4-[(R)-2-amino-3-(2,4-dimethyl-phenyl)-propionyl]-5[4-(2-amino-ethylamino)-butyl]-2-isobutyl-piperazin-1-yl}-3-(2,4-dimethyl-phenyl)-propan-1-one], for which the Ki in experiment [1] is 83 nM; in experiment [2], 1050 nM; in experiment [3] it was 450 nM; in experiment [4], 567 nM. Further, the inhibition at 1 µM came to 95% in experiment [1], 55% in experiment [2], 51% in experiment [3] and 39% in experiment [4].
As to `NCCNCCCC[C@H]1CN(C(=O)[C@H](N)Cc2ccc(Cl)cc2Cl)[C@H](CC2CCCCC2)CN1C(=O)[C@H](N)Cc1ccc(Cl)cc1Cl` [Example 24, (R)-2-Amino-1-{(2R,5S)-4-[(R)-2-amino-3-(2,4-dichloro-phenyl)-propionyl]-5-[4-(2-amino-ethylamino)-butyl]-2-cyclohexylmethyl-piperazin-1-yl}-3-(2,4-dichloro-phenyl)-propan-1-one], the Ki was 17 nM in experiment [1], 443 nM in experiment [2], 139 nM in experiment [3] and 270 nM in experiment [4].
Take `C[C@@H]1CN(C(=O)[C@H](N)Cc2ccc(Cl)cc2Cl)[C@@H](CCCNCCN)CN1C(=O)[C@H](N)Cc1ccc(Cl)cc1Cl` [Example 25, (R)-2-Amino-1-{(2R,5S)-4-[(R)-2-amino-3-(2,4-dichloro-phenyl)-propionyl]-5-[3-(2-amino-ethylamino)-propyl]-2-methyl-piperazin-1-yl}-3-(2,4-dichloro-phenyl)-propan-1-one]: in experiment [1], the inhibition constant Ki was found to be 41 nM. Also, the inhibition at 1 µM in experiment [1] worked out at 98%; in experiment [2], 89%; in experiment [3], 93%; in experiment [4], 67%.
The like results for `Cc1ccc(C[C@@H](N)C(=O)N2C[C@@H](C)N(C(=O)[C@H](N)Cc3ccc(C)cc3C)C[C@@H]2CCCNCCN)c(C)c1` [Example 26, (R)-2-Amino-1-{(2R,5S)-4-[(R)-2-amino-3-(2,4-dimethyl-phenyl)-propionyl]-5-[3-(2-amino-ethylamino)-propyl]-2-methyl-piperazin-1-yl}-3-(2,4-dimethyl-phenyl)-propan-1-one] were, in that order, 64 nM, 96%, 57%, 76% and 53%.
The like results for `C[C@@H]1CN(C(=O)[C@H](N)Cc2ccc3ccccc3c2)[C@@H](CCCNCCN)CN1C(=O)[C@H](N)Cc1ccc2ccccc2c1` [Example 27, (R)-2-Amino-1-[(2R,5S)-5-[3-(2-amino-ethylamino)-propyl]-4-((R)-2-amino-3-naphthalen-2-yl-propionyl)-2-methyl-piperazin-1-yl]-3-naphthalen-2-yl-propan-1-one] were, in that order, 42 nM, 93%, 79%, 73% and 62%.
Regarding `C[C@@H]1CN(C(=O)[C@H](N)Cc2ccc(Cl)c(Cl)c2)[C@@H](CCCNCCN)CN1C(=O)[C@H](N)Cc1ccc(Cl)c(Cl)c1` [Example 28, (R)-2-Amino-1-{(2R,5S)-4-[(R)-2-amino-3-(3,4-dichloro-phenyl)-propionyl]-5-[3-(2-amino-ethylamino)-propyl]-2-methyl-piperazin-1-yl}-3-(3,4-dichloro-phenyl)-propan-1-one], the Ki in experiment [1] stood at 19 nM. In addition, the inhibition at 1 µM in experiment [1] was 96%; in experiment [2], 94%; in experiment [3], 84%; in experiment [4] it was 77%.
On to `CC(C)C[C@@H]1CN(C[C@H](N)Cc2ccc(Cl)cc2Cl)[C@@H](CCCNCCCN)CN1C(=O)Cc1ccc2ccccc2c1` [Example 29, 1-{(2R,5S)-4-[(R)-2-Amino-3-(2,4-dichloro-phenyl)-propyl]-5-[3-(3-amino-propylamino)-propyl]-2-isobutyl-piperazin-1-yl}-2-naphthalen-2-yl-ethanone], for which the inhibition at 1 µM in experiment [1] is 91%; in experiment [2], 65%; in experiment [3], 84%; in experiment [4], 33%.
The like results for `CC(C)C[C@@H]1CN(C[C@H](N)Cc2ccc(Cl)cc2Cl)[C@@H](CCCNCCCCN)CN1C(=O)Cc1ccc2ccccc2c1` [Example 30, 1-{(2R,5S)-5-[3-(4-Amino-butylamino)-propyl]-4-[(R)-2-amino-3-(2,4-dichloro-phenyl)-propyl]-2-isobutyl-piperazin-1-yl}-2-naphthalen-2-yl-ethanone] were, in that order, 91%, 65%, 84% and 37%.
The like results for `CC(C)C[C@@H]1CN(C[C@H](N)Cc2ccc(Cl)cc2Cl)[C@@H](CCCNCCCCCN)CN1C(=O)Cc1ccc2ccccc2c1` [Example 31, 1-{(2R,5S)-4-[(R)-2-Amino-3-(2,4-dichloro-phenyl)-propyl]-5-[3-(5-amino-pentylamino)-propyl]-2-isobutyl-piperazin-1-yl}-2-naphthalen-2-yl-ethanone] were, in that order, 91%, 59%, 87% and 36%.
